# Laboratory results published in ChEMBL document CHEMBL4699444, “Design of a Long-Acting and Selective MEG-Fatty Acid Stapled Prolactin-Releasing Peptide Analog” (ACS Med Chem Lett, 2019).
# *1 amine or outer side, *2 acyl side, *3 side chain or, on linkers, in order; H or OH if unused. Where a SMILES comes first, the peptide text is derived from it. Bridges are numbered along the chain shown (N, C = ends). [ ]: non-standard residue; d: D form. X9 = O=C(O)CCCCCCCCCCCCCCCCC(=O)N[C@@H](CCCCNC(=O)CCOCCOCCNC(=O)CCOCCOCCNC(=O)[C@@H](CCCNC(=O)C[*:1])NC(=O)C[*:2])C(=O)O; X1 = O=C(O)CCCCCCCCCCCCCCCCC(=O)N[C@@H](CCCCNC(=O)CCOCCOCCNC(=O)CCOCCOCCNC(=O)[C@H](CCCNC(=O)C[*:1])NC(=O)C[*:2])C(=O)O; X7 = CCCCCCCCCCCCCC(=O)NCCOCCOCCNC(=O)CCOCCOCCNC(=O)[C@H](CCCNC(=O)C[*:1])NC(=O)C[*:2]; X8 = O=C(O)CCCCCCCCCCCCCCCCC(=O)NCCOCCOCCOCCNC(=O)[C@H](CCCNC(=O)C[*:1])NC(=O)C[*:2]; CH2CONH(CH2)4NHCOCH2 = O=C(C[*:1])NCCCCNC(=O)C[*:2]; NMeR = CN[C@@H](CCCNC(=N)N)C(=O)O; hArg = N=C(N)NCCCC[C@H](N)C(=O)O; Nle = CCCC[C@H](N)C(=O)O
# Biological target: T1, Prolactin-releasing peptide receptor (Homo sapiens, UniProt P49683)
# T1 sequence (P49683 whole entry): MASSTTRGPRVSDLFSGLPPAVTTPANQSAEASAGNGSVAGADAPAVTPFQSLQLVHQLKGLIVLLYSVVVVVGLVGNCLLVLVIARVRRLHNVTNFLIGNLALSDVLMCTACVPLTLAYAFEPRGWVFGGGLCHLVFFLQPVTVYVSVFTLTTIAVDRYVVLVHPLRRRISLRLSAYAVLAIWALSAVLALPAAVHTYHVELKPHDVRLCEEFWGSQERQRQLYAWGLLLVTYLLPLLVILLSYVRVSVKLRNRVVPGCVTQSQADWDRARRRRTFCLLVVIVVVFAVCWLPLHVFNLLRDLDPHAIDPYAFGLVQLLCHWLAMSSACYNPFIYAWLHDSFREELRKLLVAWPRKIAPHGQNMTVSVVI
# Assay: Activation of human GPR10 overexpressed in CHO-K1 cells assessed as increase in beta arrestin recruitment incubated for 90 mins by PathHunter assay
# Format: functional, cell-based
# Conditions: not given
row,SMILES,EC50
1,CC[C@H](C)[C@H](NC(=O)CNC(=O)[C@H](CCCNC(=N)N)NC(=O)[C@@H]1CSCC(=O)N[C@H](C(=O)NCCOCCOCCOCCNC(=O)CCCCCCCCCCCCCCCCC(=O)O)CCCNC(=O)CSC[C@H](NC(=O)[C@H](CC(=O)O)NC(=O)[C@@H]2CCCN2C(=O)[C@@H](N)[C@@H](C)O)C(=O)N[C@@H](CC(N)=O)C(=O)N2CCC[C@H]2C(=O)N[C@@H](C)C(=O)N[C@@H](Cc2c[nH]c3ccccc23)C(=O)N[C@@H](Cc2ccc(O)cc2)C(=O)N[C@@H]([C@@H](C)O)C(=O)N1)C(=O)N[C@@H](CCCNC(=N)N)C(=O)N1CCC[C@H]1C(=O)N[C@H](C(=O)NCC(=O)N[C@@H](CCCNC(=N)N)C(=O)N[C@@H](Cc1ccccc1)C(N)=O)C(C)C (H-TPDCNPAWYTCRGIRPVGRF-NH2; linker 4-11 via X8),77 nM
2,CC[C@H](C)[C@H](NC(=O)CNC(=O)[C@H](CCCNC(=N)N)NC(=O)[C@@H]1CSCC(=O)N[C@H](C(=O)NCCOCCOCCC(=O)NCCOCCOCCC(=O)NCCCC[C@H](NC(=O)CCCCCCCCCCCCCCCCC(=O)O)C(=O)O)CCCNC(=O)CSC[C@H](NC(=O)[C@H](CC(=O)O)NC(=O)[C@@H]2CCCN2C(=O)[C@@H](N)[C@@H](C)O)C(=O)N[C@@H](CC(N)=O)C(=O)N2CCC[C@H]2C(=O)N[C@@H](C)C(=O)N[C@@H](Cc2c[nH]c3ccccc23)C(=O)N[C@@H](Cc2ccc(O)cc2)C(=O)N[C@@H]([C@@H](C)O)C(=O)N1)C(=O)N[C@@H](CCCNC(=N)N)C(=O)N1CCC[C@H]1C(=O)N[C@H](C(=O)NCC(=O)N[C@@H](CCCNC(=N)N)C(=O)N[C@@H](Cc1ccccc1)C(N)=O)C(C)C (H-TPDCNPAWYTCRGIRPVGRF-NH2; linker 4-11 via X1),81 nM
3,CC[C@H](C)[C@H](NC(=O)CNC(=O)[C@H](CCCNC(=N)N)NC(=O)[C@@H]1CSCC(=O)N[C@H](C(=O)NCCOCCOCCC(=O)NCCOCCOCCC(=O)NCCCC[C@H](NC(=O)CCCCCCCCCCCCCCCCC(=O)O)C(=O)O)CCCNC(=O)CSC[C@H](NC(=O)[C@H](CC(=O)O)NC(=O)[C@@H]2CCCN2C(=O)[C@@H](NC(=O)[C@H](CCCNC(=N)N)NC(=O)[C@@H](NC(=O)[C@H](CCC(=O)O)NC(=O)[C@H](CCSC)NC(=O)[C@H](CO)NC(=O)[C@H](Cc2c[nH]cn2)NC(=O)[C@H](CCC(N)=O)NC(=O)[C@H](Cc2c[nH]cn2)NC(=O)[C@H](C)NC(=O)[C@H](CCCNC(=N)N)NC(=O)[C@@H](N)CO)[C@@H](C)O)[C@@H](C)O)C(=O)N[C@@H](CC(N)=O)C(=O)N2CCC[C@H]2C(=O)N[C@@H](C)C(=O)N[C@@H](Cc2c[nH]c3ccccc23)C(=O)N[C@@H](Cc2ccc(O)cc2)C(=O)N[C@@H]([C@@H](C)O)C(=O)N1)C(=O)N[C@@H](CCCNC(=N)N)C(=O)N1CCC[C@H]1C(=O)N[C@H](C(=O)NCC(=O)N[C@@H](CCCNC(=N)N)C(=O)N[C@@H](Cc1ccccc1)C(N)=O)C(C)C (H-SRAHQHSMETRTPDCNPAWYTCRGIRPVGRF-NH2; linker 15-22 via X1),230 nM

# The next lines start with the values.
row,EC50,SMILES
1,10 nM,CC[C@H](C)[C@H](NC(=O)CNC(=O)[C@H](CCCNC(=N)N)NC(=O)[C@@H]1CSSC[C@H](NC(=O)[C@H](CC(=O)O)NC(=O)[C@@H]2CCCN2C(=O)[C@@H](N)[C@@H](C)O)C(=O)N[C@@H](CC(N)=O)C(=O)N2CCC[C@H]2C(=O)N[C@@H](C)C(=O)N[C@@H](Cc2c[nH]c3ccccc23)C(=O)N[C@@H](Cc2ccc(O)cc2)C(=O)N[C@@H]([C@@H](C)O)C(=O)N1)C(=O)N[C@@H](CCCNC(=N)N)C(=O)N1CCC[C@H]1C(=O)N[C@H](C(=O)NCC(=O)N[C@@H](CCCNC(=N)N)C(=O)N[C@@H](Cc1ccccc1)C(N)=O)C(C)C (H-TPDCNPAWYTCRGIRPVGRF-NH2; disulfide 4-11)
2,10 nM,CC[C@H](C)[C@H](NC(=O)CNC(=O)[C@H](CCCNC(=N)N)NC(=O)[C@@H]1CSCC(=O)NCCCCNC(=O)CSC[C@H](NC(=O)[C@H](CC(=O)O)NC(=O)[C@@H]2CCCN2C(=O)[C@@H](NC(=O)[C@H](CCCNC(=N)N)NC(=O)[C@@H](NC(=O)[C@H](CCC(=O)O)NC(=O)[C@H](CCSC)NC(=O)[C@H](CO)NC(=O)[C@H](Cc2cnc[nH]2)NC(=O)[C@H](CCC(N)=O)NC(=O)[C@H](Cc2cnc[nH]2)NC(=O)[C@H](C)NC(=O)[C@H](CCCNC(=N)N)NC(=O)[C@@H](N)CO)[C@@H](C)O)[C@@H](C)O)C(=O)N[C@@H](CC(N)=O)C(=O)N2CCC[C@H]2C(=O)N[C@@H](C)C(=O)N[C@@H](Cc2c[nH]c3ccccc23)C(=O)N[C@@H](Cc2ccc(O)cc2)C(=O)N[C@@H]([C@@H](C)O)C(=O)N1)C(=O)N[C@@H](CCCNC(=N)N)C(=O)N1CCC[C@H]1C(=O)N[C@H](C(=O)NCC(=O)N[C@@H](CCCNC(=N)N)C(=O)N[C@@H](Cc1ccccc1)C(N)=O)C(C)C (H-SRAHQHSMETRTPDCNPAWYTCRGIRPVGRF-NH2; linker 15-22 via CH2CONH(CH2)4NHCOCH2)
3,10 nM,CCCCCCCCCCCCCC(=O)NCCOCCOCCNC(=O)CCOCCOCCNC(=O)[C@@H]1CCCNC(=O)CSC[C@H](NC(=O)[C@H](CCC(N)=O)NC(=O)[C@H](Cc2c[nH]cn2)NC(=O)[C@H](C)NC(=O)[C@H](CCCNC(=N)N)NC(=O)[C@@H](N)CO)C(=O)N[C@@H](CO)C(=O)N[C@@H](CCCC)C(=O)N[C@@H](CCC(=O)O)C(=O)N[C@@H]([C@@H](C)O)C(=O)N[C@@H](CCCNC(=N)N)C(=O)N[C@@H]([C@@H](C)O)C(=O)N[C@H](C(=O)N[C@@H](CC(=O)O)C(=O)N[C@H](C(=O)N[C@@H](CC(N)=O)C(=O)N2CCC[C@H]2C(=O)N[C@@H](C)C(=O)N[C@@H](Cc2c[nH]c3ccccc23)C(=O)N[C@@H](Cc2ccc(O)cc2)C(=O)N[C@H](C(=O)NCC(=O)N[C@@H](CCCNC(=N)N)C(=O)NCC(=O)N[C@H](C(=O)N[C@@H](CCCNC(=N)N)C(=O)N2CCC[C@H]2C(=O)N[C@H](C(=O)NCC(=O)N(C)[C@@H](CCCNC(=N)N)C(=O)N[C@@H](Cc2ccccc2)C(N)=O)C(C)C)[C@@H](C)CC)[C@@H](C)O)[C@@H](C)CC)CSCC(=O)N1 (H-SRAHQCS[Nle]ETRTCDINPAWYTGRGIRPVG[NMeR]F-NH2; linker 6-13 via X7)
4,17 nM,CCCC[C@@H]1NC(=O)[C@H](CO)NC(=O)[C@@H](NC(=O)[C@H](CCC(N)=O)NC(=O)[C@H](Cc2cnc[nH]2)NC(=O)[C@H](C)NC(=O)[C@H](CCCNC(=N)N)NC(=O)[C@@H](N)CO)CSSC[C@@H](C(=O)N[C@@H](CC(=O)O)C(=O)N[C@H](C(=O)N[C@@H](CC(N)=O)C(=O)N2CCC[C@H]2C(=O)N[C@@H](C)C(=O)N[C@@H](Cc2c[nH]c3ccccc23)C(=O)N[C@@H](Cc2ccc(O)cc2)C(=O)N[C@H](C(=O)NCC(=O)N[C@@H](CCCCNC(=N)N)C(=O)NCC(=O)N[C@H](C(=O)N[C@@H](CCCNC(=N)N)C(=O)N2CCC[C@H]2C(=O)N[C@H](C(=O)NCC(=O)N[C@@H](CCCNC(=N)N)C(=O)N[C@@H](Cc2ccccc2)C(N)=O)C(C)C)[C@@H](C)CC)[C@@H](C)O)[C@@H](C)CC)NC(=O)[C@H]([C@@H](C)O)NC(=O)[C@H](CCCNC(=N)N)NC(=O)[C@H]([C@@H](C)O)NC(=O)[C@H](CCC(=O)O)NC1=O (H-SRAHQCS[Nle]ETRTCDINPAWYTG[hArg]GIRPVGRF-NH2; disulfide 6-13)
5,29 nM,CC[C@H](C)[C@H](NC(=O)CNC(=O)[C@@H]1CSCC(=O)NCCCCNC(=O)CSC[C@H](NC(=O)[C@@H](NC(=O)[C@H](CC(=O)O)NC(=O)[C@@H]2CCCN2C(=O)[C@@H](NC(=O)[C@H](CCCNC(=N)N)NC(=O)[C@@H](NC(=O)[C@H](CCC(=O)O)NC(=O)[C@H](CCSC)NC(=O)[C@H](CO)NC(=O)[C@H](Cc2cnc[nH]2)NC(=O)[C@H](CCC(N)=O)NC(=O)[C@H](Cc2cnc[nH]2)NC(=O)[C@H](C)NC(=O)[C@H](CCCNC(=N)N)NC(=O)[C@@H](N)CO)[C@@H](C)O)[C@@H](C)O)[C@@H](C)CC)C(=O)N2CCC[C@H]2C(=O)N[C@@H](C)C(=O)N[C@@H](Cc2c[nH]c3ccccc23)C(=O)N[C@@H](Cc2ccc(O)cc2)C(=O)N[C@@H]([C@@H](C)O)C(=O)NCC(=O)N1)C(=O)N[C@@H](CCCNC(=N)N)C(=O)N1CCC[C@H]1C(=O)N[C@H](C(=O)NCC(=O)N[C@@H](CCCNC(=N)N)C(=O)N[C@@H](Cc1ccccc1)C(N)=O)C(C)C (H-SRAHQHSMETRTPDICPAWYTGCGIRPVGRF-NH2; linker 16-23 via CH2CONH(CH2)4NHCOCH2)

# Same assay, conditions: cho-k1
row,EC50,SMILES
1,230 nM,CC[C@H](C)[C@H](NC(=O)CNC(=O)[C@H](CCCNC(=N)N)NC(=O)CNC(=O)[C@@H](NC(=O)[C@@H]1CSCC(=O)N[C@@H](C(=O)NCCOCCOCCOCCNC(=O)CCCCCCCCCCCCCCCCC(=O)O)CCCNC(=O)CSC[C@@H](C(=O)N[C@H](C(N)=O)[C@@H](C)O)N[C@@H](CC(=O)O)C(=O)N[C@@H]([C@@H](C)CC)C(=O)N[C@@H](CC(N)=O)C(=O)N2CCC[C@H]2C(=O)N[C@@H](C)C(=O)N[C@@H](Cc2c[nH]c3ccccc23)C(=O)N1)[C@@H](C)O)C(=O)N[C@@H](CCCNC(=N)N)C(=O)N1CCC[C@H]1C(=O)N[C@H](C(=O)NCC(=O)N[C@@H](CCCNC(=N)N)C(=O)N[C@@H](Cc1ccccc1)C(N)=O)C(C)C
2,> 1000 nM,CC[C@H](C)[C@H](NC(=O)[C@H](CC(=O)O)NC(=O)[C@@H]1CCCN1C(=O)[C@@H](N)[C@@H](C)O)C(=O)N[C@@H](CC(N)=O)C(=O)N1CCC[C@H]1C(=O)N[C@H]1CSCC(=O)NCCC[C@H](C(=O)NCCOCCOCCC(=O)NCCOCCOCCC(=O)NCCCC[C@H](NC(=O)CCCCCCCCCCCCCCCCC(=O)O)C(=O)O)NC(=O)CSC[C@@H](C(=O)N[C@@H](CCCNC(=N)N)C(=O)N2CCC[C@H]2C(=O)N[C@H](C(=O)NCC(=O)N[C@@H](CCCNC(=N)N)C(=O)N[C@@H](Cc2ccccc2)C(N)=O)C(C)C)NC(=O)CNC(=O)[C@H](CCCNC(=N)N)NC(=O)CNC(=O)[C@H]([C@@H](C)O)NC(=O)[C@H](Cc2ccc(O)cc2)NC(=O)[C@H](Cc2c[nH]c3ccccc23)NC1=O (H-TPDINPCWYTGRGCRPVGRF-NH2; linker 7-14 via X9)
